Data taken from BindingDB's records for doi:10.7270/Q28G8J4C (Broad Institute, 2009).

target: T1, POsterior Segregation (Caenorhabditis elegans, UniProt G5EF15); test: inhibitors of POS-1/mex-3 RNA binding, dose response, biochemical, fluorescence polarization (AID 1964)
T1 sequence (G5EF15 whole entry): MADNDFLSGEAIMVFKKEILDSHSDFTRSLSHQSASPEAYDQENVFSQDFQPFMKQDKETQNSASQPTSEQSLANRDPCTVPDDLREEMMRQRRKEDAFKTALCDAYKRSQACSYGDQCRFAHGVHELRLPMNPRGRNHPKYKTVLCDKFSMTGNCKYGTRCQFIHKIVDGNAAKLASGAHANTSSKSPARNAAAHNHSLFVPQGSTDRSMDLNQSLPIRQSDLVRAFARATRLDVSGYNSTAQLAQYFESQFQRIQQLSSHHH

Q: `N#CC(C(=O)c1cc2ccccc2o1)c1nc2ccccc2s1` (stereo unspecified) [(2Z)-3-(1-benzofuran-2-yl)-2-(3H-1,3-benzothiazol-2-ylidene)-3-oxidanylidene-propanenitrile] was tested. Which EC50 did it give?
A: > 300 µM

Q: Which EC50 does the source give for `COc1ccccc1-n1c(O)c2n(-c3ccc(C)cc3)[nH]c(C(=O)c3ccccc3)c-2c1=O` here?
A: 13.7 µM

Q: How did the EC50 turn out when `O=NCc1cccn1-c1cccc(C(=O)O)c1` [3-[2-(hydroximinomethyl)pyrrol-1-yl]benzoic acid] was run?
A: > 300 µM

Q: How did the EC50 turn out when `COC1=CC(CN=Nc2[nH]c(=O)nnc2C)C=C([N+](=O)[O-])C1=O` (stereo unspecified) [5-[[(E)-(3-methoxy-5-nitro-4-oxo-1-cyclohexa-2,5-dienylidene)methyl]hydrazo]-6-methyl-2H-1,2,4-triazin-3-one] was run?
A: 7.98 µM

Q: For `CC(N=Nc1ccc(Cl)c(C(=O)O)c1)c1ccc[nH]1` (stereo unspecified) [2-chloro-5-[2-[(1Z)-1-pyrrol-2-ylideneethyl]hydrazinyl]benzoic acid], which EC50 is on record?
A: > 300 µM

Q: With `O=CC(C=Nc1ccccn1)c1nc2ccccc2o1` (stereo unspecified) [2-Benzooxazol-2-yl-3-(pyridin-2-ylamino)-propenal] as the molecule, how does the EC50 read?
A: > 300 µM

Q: For `COc1cc(CN=Nc2[nH]c(=O)nnc2C)ccc1O` [5-[2-[(E)-(3-methoxy-4-oxocyclohexa-2,5-dien-1-ylidene)methyl]hydrazinyl]-6-methyl-2H-1,2,4-triazin-3-one], which EC50 is on record?
A: 56.8 µM

Q: For `Cc1ccc(C(=O)Cc2nc3cc(C)ccc3oc2=O)cc1` [(3Z)-3-[2-keto-2-(p-tolyl)ethylidene]-6-methyl-4H-1,4-benzoxazin-2-one], which EC50 is on record?
A: 7.64 µM

Q: Which EC50 does the source give for `CCCCOc1c(Br)cc(CN=O)cc1OCC` [3-bromo-4-butoxy-5-ethoxy-benzaldoxime] here?
A: > 300 µM

Q: With `Fc1ccc(C2=Nc3ncnn3C(c3ccco3)C2)cc1` (stereo unspecified) [5-(4-fluorophenyl)-7-(2-furanyl)-1,7-dihydro-[1,2,4]triazolo[1,5-a]pyrimidine] as the molecule, how does the EC50 read?
A: 14.7 µM

Q: For `N#CC1C(=N)OC2=C(C(=O)CCC2)C1c1ccccc1` (stereo unspecified) [2-amino-5-keto-4-phenyl-4,6,7,8-tetrahydrochromene-3-carbonitrile], which EC50 is on record?
A: > 300 µM

Q: How did the EC50 turn out when `Oc1ccc(CN=Nc2ccc(Cl)nn2)c(O)c1O` was run?
A: 50 µM

Q: `O=C1CC(=O)c2c(O)cc(O)c(O)c2C1=O` [4,5,7,8-tetrahydroxy-1,2-naphthoquinone] was tested. Which EC50 did it give?
A: 1.07 µM

Q: Which EC50 does the source give for `COc1ccc(C(=O)Nc2nnc(CC(=O)NN=Cc3ccc(O)cc3O)s2)cc1` [4-methoxy-N-[5-[2-oxidanylidene-2-[2-[(E)-(2-oxidanyl-4-oxidanylidene-cyclohexa-2,5-dien-1-ylidene)methyl]hydrazinyl]ethyl]-1,3,4-thiadiazol-2-yl]benzamide] here?
A: 125 µM

Q: Which EC50 does the source give for `O=C1C(=O)N(c2ncccn2)C(c2cccs2)C1C(=O)c1ccco1` (stereo unspecified) [3-(furan-2-carbonyl)-4-hydroxy-1-pyrimidin-2-yl-2-thiophen-2-yl-2H-pyrrol-5-one] here?
A: 39.9 µM

Q: Which EC50 does the source give for `Cc1ncc(CO)c(CNNC(=O)C2=CC(=O)C(=O)C(=O)C2)c1O` [3,4,5-trihydroxy-N'-{(1E)-[3-hydroxy-5-(hydroxymethyl)-2-methylpyridin-4-yl]methylene}benzohydrazide] here?
A: 71.2 µM

Q: `CSc1nnc(N2C(=O)C(=O)C(C(=O)c3ccco3)C2c2cccc(Cl)c2)s1` (stereo unspecified) [2-(3-chlorophenyl)-3-(furan-2-carbonyl)-4-hydroxy-1-(5-methylsulfanyl-1,3,4-thiadiazol-2-yl)-2H-pyrrol-5-one] was tested. Which EC50 did it give?
A: 31.3 µM

Q: For `CCCCOC(=O)c1ccc(NN=C2C(=O)NC(=O)C(C#N)=C2C)cc1` [MLS000778379], which EC50 is on record?
A: > 300 µM

Q: How did the EC50 turn out when `CCCCN1C(=O)NC(=O)C(=CNNC(=O)c2ccncc2)C1=O` [Isonicotinic acid N'-[1-butyl-2,4,6-trioxo-tetrahydro-pyrimidin-(5E)-ylidenemethyl]-hydrazide] was run?
A: > 300 µM

Q: `O=C(CC=Nc1ccc([N+](=O)[O-])cc1)c1ccc(Br)cc1` [(E)-1-(4-bromophenyl)-3-(4-nitroanilino)-2-propen-1-one] was tested. Which EC50 did it give?
A: > 300 µM

Q: How did the EC50 turn out when `Cc1cccc(NNC2=c3cc(Br)ccc3=NC2=O)c1` [5-bromo-3-[2-(3-methylphenyl)hydrazinyl]indol-2-one] was run?
A: 68.3 µM

Q: Which EC50 does the source give for `Oc1c(Br)cc(Br)c(C=Nn2c(-c3ccccc3)n[nH]c2=S)c1Br` [2,4,6-Tribromo-3-[(3-mercapto-5-phenyl-[1,2,4]triazol-4-ylimino)-methyl]-phenol] here?
A: 8.49 µM

Q: With `N#CC1=C2CCOCC2C(c2cccnc2)C(C#N)(C#N)C1=N` (stereo unspecified) [6-Amino-8-pyridin-3-yl-8,8a-dihydro-1H,3H-isochromene-5,7,7-tricarbonitrile] as the molecule, how does the EC50 read?
A: > 300 µM

Q: How did the EC50 turn out when `Cc1nnc(=O)[nH]c1N=NCC1C=CC(=O)C([N+](=O)[O-])=C1` (stereo unspecified) [MLS000585487] was run?
A: 169 µM

Q: For `COc1ccc(N2C(=O)NC(=O)C(=Cc3c[nH]c4ccc(Br)cc34)C2=O)c(OC)c1` [(5E)-5-[(5-bromo-1H-indol-3-yl)methylene]-1-(2,4-dimethoxyphenyl)pyrimidine-2,4,6(1H,3H,5H)-trione], which EC50 is on record?
A: > 300 µM

Q: With `N#CC1C(=N)OC2=C(C(=O)CC(c3ccco3)C2)C1c1ccc(OCc2c(F)cccc2Cl)cc1` (stereo unspecified) [2-azanyl-4-[4-[(2-chloranyl-6-fluoranyl-phenyl)methoxy]phenyl]-7-(furan-2-yl)-5-oxidanylidene-4,6,7,8-tetrahydrochromene-3-carbonitrile] as the molecule, how does the EC50 read?
A: > 300 µM

Q: For `O=C1NC(=O)N(CCc2ccc(F)cc2)C(=O)C1=CNCCCn1ccnc1` [(5E)-1-[2-(4-fluorophenyl)ethyl]-5-[(3-imidazol-1-ylpropylamino)methylene]barbituric acid], which EC50 is on record?
A: > 300 µM

Q: How did the EC50 turn out when `O=C1NC(=O)N(CCc2ccc(F)cc2)C(=O)C1=CNNC(=O)c1ccccc1` [N'-[(E)-[1-[2-(4-fluorophenyl)ethyl]-2,4,6-trioxo-1,3-diazinan-5-ylidene]methyl]benzohydrazide] was run?
A: > 300 µM

Q: Which EC50 does the source give for `CCCCCCN1C(=O)NC(=O)C(=CNCCCn2ccnc2)C1=O` [(5E)-1-hexyl-5-[[3-(1-imidazolyl)propylamino]methylidene]-1,3-diazinane-2,4,6-trione] here?
A: > 300 µM

Q: For `O=C(Cc1nc2cc(Cl)ccc2oc1=O)c1cccs1` [(3Z)-6-chloranyl-3-(2-oxidanylidene-2-thiophen-2-yl-ethylidene)-4H-1,4-benzoxazin-2-one], which EC50 is on record?
A: 230 µM

Q: `COc1[nH]c(N=Cc2ccccc2)c(C#N)c1C#N` [2-methoxy-5-[(phenylmethylene)amino]-1H-pyrrole-3,4-dicarbonitrile] was tested. Which EC50 did it give?
A: 6.46 µM

Q: Which EC50 does the source give for `Cc1cc(N2C(=O)C(=O)C(C(=O)c3cc4ccccc4o3)C2c2ccc([N+](=O)[O-])cc2)no1` (stereo unspecified) [3-(1-benzofuran-2-carbonyl)-4-hydroxy-1-(5-methyl-1,2-oxazol-3-yl)-2-(4-nitrophenyl)-2H-pyrrol-5-one] here?
A: > 300 µM

Q: For `COc1ccc(C2C3=C(CC(C)(C)CC3=O)OC(=N)C2C#N)cc1OC` (stereo unspecified) [2-amino-4-(3,4-dimethoxyphenyl)-5-keto-7,7-dimethyl-6,8-dihydro-4H-chromene-3-carbonitrile], which EC50 is on record?
A: > 300 µM

Q: For `CN(C)[C@@H]1C(=O)C(C(N)=O)C(=O)[C@@]2(O)C(=O)C3C(=O)c4c(O)cccc4[C@@](C)(O)[C@H]3[C@H](O)[C@@H]12` (stereo partly drawn) [(2E,4S,4aR,5S,5aR,6S,12aS)-2-[azanyl(oxidanyl)methylidene]-4-(dimethylamino)-6-methyl-5,6,10,11,12a-pentakis(oxidanyl)-4,4a,5,5a-tetrahydrotetracene-1,3,12-trione], which EC50 is on record?
A: 65.8 µM

Q: For `CN1CCC2(CC1)C(C#N)C(=N)NC(=S)C2C#N` (stereo unspecified) [SMR000211480], which EC50 is on record?
A: 8.05 µM

Q: For `CC1(C)CC(=O)C2=C(C1)OC(=N)C(C#N)C2c1ccccc1` (stereo unspecified) [2-amino-5-keto-7,7-dimethyl-4-phenyl-6,8-dihydro-4H-chromene-3-carbonitrile], which EC50 is on record?
A: > 300 µM
